From ChEMBL document CHEMBL5230140, “A retrospective overview of PHGDH and its inhibitors for regulating cancer metabolism” (Eur J Med Chem, 2021) come the findings set out here.

Bounds are passed on as bounds.

The target in one assay is T1, D-3-phosphoglycerate dehydrogenase (Homo sapiens, UniProt O43175).
T1 sequence (O43175 whole entry): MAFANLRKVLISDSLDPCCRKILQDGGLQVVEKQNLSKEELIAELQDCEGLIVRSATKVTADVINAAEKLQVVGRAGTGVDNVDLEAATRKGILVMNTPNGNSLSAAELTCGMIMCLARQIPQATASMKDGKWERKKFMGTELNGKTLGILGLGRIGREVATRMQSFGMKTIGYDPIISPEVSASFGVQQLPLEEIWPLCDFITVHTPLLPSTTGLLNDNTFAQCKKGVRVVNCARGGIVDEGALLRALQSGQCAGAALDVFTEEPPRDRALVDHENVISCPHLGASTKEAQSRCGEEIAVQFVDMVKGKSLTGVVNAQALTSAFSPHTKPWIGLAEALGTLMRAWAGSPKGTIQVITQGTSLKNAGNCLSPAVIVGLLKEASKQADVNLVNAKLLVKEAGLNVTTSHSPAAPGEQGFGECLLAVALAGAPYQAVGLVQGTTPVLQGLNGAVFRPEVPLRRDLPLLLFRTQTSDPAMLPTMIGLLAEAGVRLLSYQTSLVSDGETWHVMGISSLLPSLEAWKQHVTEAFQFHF
Description: Binding affinity to human PHGDH expressed in Escherichia coli BL21 incubated for 30 mins by MST assay.
`COC(=O)[C@H](C)N1Cc2c(O)c(O)c(O)c(C)c2C1=O` returned a Kd of 15.2 µM.

Another assay addresses T1, D-3-phosphoglycerate dehydrogenase. Description: Binding affinity to PHGDH (unknown origin) by isothermal titration calorimetry.
In turn, `NC(=O)c1cc2ccccc2s1` gave a dissociation constant Kd of 470 µM.

The target is the same in another assay. Description: Inhibition of human PHGDH by fluorescence based analysis.
In turn, `S=C(SSC(=S)N1CCOCC1)N1CCOCC1` had a half-inhibitory concentration (IC50) of 0.21 µM.

On to `S=C(SSC(=S)N(C1CCCCC1)C1CCCCC1)N(C1CCCCC1)C1CCCCC1`, for which inhibition was half-maximal at 1.39 µM (IC50).

For `CC1CCC(C)N1C(=S)SSC(=S)N1C(C)CCC1C` (configuration not stated), the IC50 came to 0.42 µM.

The compound `S=C(Nc1ccccc1)SSC(=S)Nc1ccccc1` came in with an IC50 of 0.36 µM.

`CN1CCN(C(=S)SCSC(=S)N2CCNCC2)CC1` yielded an IC50 of 67.3 µM.

As to `S=C(SSC(=S)N1CCN(c2ccccc2)CC1)N1CCN(c2ccccc2)CC1`, the IC50 is 0.41 µM.

Consider `S=C(SSC(=S)N1CCN(C2CCCCC2)CC1)N1CCN(C2CCCCC2)CC1`, for which the half-inhibitory concentration (IC50) amounted to 0.57 µM.

`S=C(SSC(=S)N1CCN(Cc2ccccc2)CC1)N1CCN(Cc2ccccc2)CC1`: the IC50 came to 22.5 µM.

As to `CN(C(=S)SSC(=S)N(C)c1ccccc1)c1ccccc1`, the half-inhibitory concentration (IC50) came out at 0.42 µM.

`CCN(CC)C(=S)SCSC(=S)N(CC)CC` gave a concentration for half-maximal inhibition (IC50) of 45.9 µM.

As for `CN1CCN(C(=S)SSC(=S)N2CCN(C)CC2)CC1`, half-maximal inhibition (IC50) was put at 0.17 µM.

The compound `S=C(SSC(=S)N1CCSCC1)N1CCSCC1` registered an IC50 of 0.34 µM.

Compound `CC1CCN(C(=S)SSC(=S)N2CCC(C)CC2)CC1` yielded an IC50 of 0.58 µM.

Consider `CN(C(=S)SSC(=S)N(C)C1CCCCC1)C1CCCCC1`, for which it took 1.01 µM to reach half-maximal inhibition (IC50).

The compound `S=C(SSC(=S)N1CCc2ccccc2C1)N1CCc2ccccc2C1` registered an IC50 of 0.38 µM.

Turning to `CCN(CC)C(=O)CSC(=S)N(CC)CC` [(DIETHYLCARBAMOYL)METHYLENE DIETHYLCARBAMODITHIOATE], the IC50 is > 1000 µM.

On to `CCN(CC)C(=S)CSC(=S)N(CC)CC` [(DIETHYLTHIOCARBAMOYL)METHYLENE DIETHYLCARBAMODITHIOATE], for which it took 36.4 µM to reach half-maximal inhibition (IC50).

`S=C(SSC(=S)N1CCCCC1)N1CCCCC1` [BIS(PIPERIDINYLTHIOCARBONYL)DISULFIDE] came in with a half-inhibitory concentration (IC50) of 0.51 µM.

Another assay has the same target. Description: Inhibition of human PHGDH expressed in Escherichia coli BL21 using 3-PG as substrate incubated for 30 mins by fluorescence based analysis.
With `C[C@H]1C(=O)OC([C@@H](O)[C@](C)(O)C2[C@@H](O)CC3C4C[C@H]5O[C@]56[C@@H](O)C=CC(=O)[C@]6(C)C4CC[C@@]32C)[C@@H]1C` (some centres not stated), half-maximal inhibition (IC50) was put at 1.66 µM.

Turning to `COC(=O)[C@H](C)N1Cc2c(O)c(O)c(O)c(C)c2C1=O`, the half-maximal inhibitory concentration (IC50) was 9.76 µM.

Another assay has the same target. Put plainly: Inhibition of human PHGDH using 3-PG as substrate incubated for 60 mins by fluorescence based analysis.
As for `O=C(c1cc(-c2ccccc2)n[nH]1)N1CCc2cc(S(=O)(=O)Nc3ncccn3)ccc21`, the IC50 is > 100 µM.

`Cc1cc(C)nc(NS(=O)(=O)c2ccc(NC(=O)c3cc(-c4ccccc4O)n[nH]3)cc2)n1`: the IC50 is < 50 µM.

The next assay has the same target. Put plainly: Binding affinity to human PHGDH (3 to 314 residues) expressed in Escherichia coli Rosetta (DE3) by isothermal titration calorimetry.
Compound `COc1ccc(NC(C)=O)cc1Cl` came in with a dissociation constant (Kd) of 1300 µM.

The compound `Cc1cncc(Cc2cccc(CO)c2)n1` displayed a Kd of 16600 µM.

Another assay shares this target. Put plainly: Inhibition of human PHGDH using 3-PG as substrate by fluorescence based analysis.
The compound `O=C(c1ccc(Cl)cc1)N1CCOCC1` [(4-CHLOROPHENYL)(MORPHOLINO)METHANONE] yielded a 50% inhibitory concentration (IC50) of 10.4 µM.
